Assay type in all cases: cell-based
Assay [1] concerns Salmonella choleraesuis. The assay is described as follows: Agar plate assay, inhibition of pathogenic germs by CE test germs.
For assay [2], the system named is Campylobacter jejuni. Described as above.
The test system of assay [3] is Clostridium perfringens.
Assay [4] relates to E. coli. The assay is described as follows: Agar plate assay, inhibition of pathogenic germs by CE test germs.

Where “and” joins values, the source holds several entries; their conditions need not be identical. Equal entries are not always repeated. Where two headings read alike, the source gives them in different places.

Regarding Pediococcus acidilactici [DSM 20284], in assay [1] (MRS agar), the “inhibition zone to test germ ratio, Salmonella choleraesuis” value is listed as 1.10. The “inhibition zone to test germ ratio, Campylobacter jejuni” value in assay [2] (MRS agar) amounted to 1.32. For the same substance, in assay [3], the “inhibition zone to test germ ratio, Clostridium perfringens” value is given as 1.35.
For the substance Enterococcus faecium [DSM 16211], the “inhibition zone to test germ ratio, Salmonella choleraesuis” value in assay [1] (MRS agar) worked out at 1.37. The “inhibition zone to test germ ratio, Campylobacter jejuni” value in assay [2] (MRS agar) came out at 1.28. In addition, the “inhibition zone to test germ ratio, Clostridium perfringens” value in assay [3] stood at 1.43.
On to Bifidobacterium animalis [DSM 20104], for which the “inhibition zone to test germ ratio, Salmonella choleraesuis” value in assay [1] (MRS agar) is 0.65. In assay [2] (MRS agar), the “inhibition zone to test germ ratio, Campylobacter jejuni” value turned out to be 0.31. Moreover, the “inhibition zone to test germ ratio, Clostridium perfringens” value in assay [3] stood at 1.42.
Consider Enterococcus faecium [NCIMB 10415], for which, in assay [4], the “inhibition zone to test germ ratio, E. coli” value is 1.37 and 1.35. Further, the “inhibition zone to test germ ratio, Salmonella choleraesuis” value in assay [1] is 1.20. Besides, in assay [2], the “inhibition zone to test germ ratio, Campylobacter jejuni” value was 1.22. Besides, the “inhibition zone to test germ ratio, Clostridium perfringens” value in assay [3] amounted to 1.31.
With Lactobacillus reuteri [DSM 16350], in assay [1] (MRS agar), the “inhibition zone to test germ ratio, Salmonella choleraesuis” value is reported as 1.60. Also, the “inhibition zone to test germ ratio, Campylobacter jejuni” value in assay [2] (MRS agar) came to 1.36. The “inhibition zone to test germ ratio, Clostridium perfringens” value in assay [3] is reported as 2.12.
Turning to Lactobacillus salivarius [DSM 20555], the “inhibition zone to test germ ratio, Salmonella choleraesuis” value in assay [1] (MRS agar) is 1.09. In addition, in assay [2] (MRS agar), the “inhibition zone to test germ ratio, Campylobacter jejuni” value is 1.41. Further, in assay [3], the “inhibition zone to test germ ratio, Clostridium perfringens” value was 1.63.
The matching figures for “Lactobacillus salivarius ssp. salivarius [DSM 16351]”: 1.46, 1.50 and 2.05.
The like results for Lactobacillus reuteri [DSM 20016] were, in that order, 1.20, 1.35 and 1.54.

The values are drawn from US8101170B2, “Probiotic health or fitness promoting human or animal foodstuff and/or drinking water additive and use thereof” (Erber Aktiengesellschaft, priority 2005, dated 2012).
